The source of these data is US10358463B2, “Immunomodulators” (BRISTOL-MYERS SQUIBB COMPANY, priority 2016, dated 2019).

The assay deals with T1, PD-1-Ig binding to PD-L1-TVMV-His (PD-L1-His) (Homo sapiens, UniProt Q9NZQ7).
T1 construct: hPDL1 (19-239)-TVMV-His; TVMV protease cleavage site (C); made in house; host or cells: HEK293T cells
Kind of assay: PD-1/PD-L1 Homogenous Time-Resolved Fluorescence (HTRF) binding assay. The settings on record: PD-1-Ig (20 nM)/PD-L1-His (10 nM); range class. The text has this: The ability of the macrocyclic peptides of the present disclosure to bind to PD-L1 was investigated using a PD-1/PD-L1 Homogenous Time-Resolved Fluorescence (HTRF) binding assay.
Homogenous Time-Resolved Fluorescence (HTRF) Assays of Binding of Soluble PD-1 to Soluble PD-L1. Soluble PD-1 and soluble PD-L1 refers to proteins with carboxyl-end truncations that remove the transmembrane-spanning regions and are fused to heterologous sequences, specifically the Fc portion of the human immunoglobuling G sequence (Ig) or the hexahistidine epitope tag (His). All binding studies were performed in an HTRF assay buffer consisting of dPBS supplemented with 0.1% (w/v) bovine serum albumin and 0.05% (v/v) Tween-20. For the PD-1-Ig/PD-L1-His binding assay, inhibitors were pre-incubated with PD-L1-His (10 nM final) for 15 m in 4 μl of assay buffer, followed by addition of PD-1-Ig (20 nM final) in 1 μl of assay buffer and further incubation for 15 m. PD-L1 fusion proteins from either human, cynomologous macaques, mouse, or other species were used. HTRF detection was achieved using europium crypate-labeled anti-Ig monoclonal antibody (1 nM final) and allophycocyanin (APC) labeled anti-His monoclonal antibody (20 nM final). Antibodies were diluted in HTRF detection buffer and 5 μl was dispensed on top of binding reaction. The reaction was allowed to equilibrate for 30 minutes and signal (665 nm/620 nm ratio) was obtained using an EnVision fluorometer. Additional binding assays were established between PD-1-Ig/PD-L2-His (20 and 5 nM, respectively), CD80-His/PD-L1-Ig (100 and 10 nM, respectively) and CD80-His/CTLA4-Ig (10 and 5 nM, respectively). Binding/competition studies between biotinylated Compound No. 71 and human PD-L1-His were performed as follows. Macrocyclic peptide inhibitors were pre-incubated with PD-L1-His (10 nM final) for 60 minutes in 4 μl of assay buffer followed by addition of biotinylated Compound No. 71 (0.5 nM final) in 1 μl of assay buffer. Binding was allowed to equilibrate for 30 minutes followed by addition of europium crylated labeled Streptavidin (2.5 pM final) and APC-labeled anti-His (20 nM final) in 5 μl of HTRF buffer. The reaction was allowed to equilibrate for 30 m and signal (665 nm/620 nm ratio) was obtained using an EnVision fluorometer.
Recombinant Proteins. Carboxyl-truncated human PD-1 (amino acids 25-167) with a C-terminal human Ig epitope tag [hPD-1 (25-167)-3S-IG] and human PD-L1 (amino acids 18-239) with a C-terminal His epitope tag [hPD-L1(19-239)-tobacco vein mottling virus protease cleavage site (TVMV)-His] were expressed in HEK293T cells and purified sequentially by recombinant Protein A affinity chromatography and size exclusion chromatography. Human PD-L2-His (Sino Biologicals), CD80-His (Sino Biologicals), CTLA4-Ig (RnD Systems) were all obtained through commercial sources.
On the technique in general: In TR-FRET formats the signal depends on donor and acceptor labels being close together.

The structures appear in SMILES notation. Numbered stars: 1 amine (or outer) side, 2 acyl side, 3 side chain; on linkers, the order of the positions; unused ones are H or OH. Bridge positions count the residues as written; N and C are the ends. Square brackets hold non-standard residues; d marks the D form. Peptide text beside a SMILES is read from it. Trp(1-CH2CONHSO2Me) = CS(=O)(=O)NC(=O)Cn1cc(C[C@H](N)C(=O)O)c2ccccc21; X14 = C[C@H](C(=O)O)n1c(=O)n(C[C@H](N[*:1])C(=O)[*:2])c2ccccc21; X1 = O=C(O)Cn1c(C(=O)O)c(C[C@H](N[*:1])C(=O)[*:2])c2ccccc21; X18 = O=C(O)Cn1c(=O)n(C[C@H](N[*:1])C(=O)[*:2])c2ccccc21; X11 = O=C(O)Cc1nc(C[C@H](N[*:1])C(=O)[*:2])c2n1CCCC2; X12 = O=C(O)Cc1nn(C[C@H](N[*:1])C(=O)[*:2])c2ccccc12; X13 = O=C(O)Cc1nc(C[C@H](N[*:1])C(=O)[*:2])c2ccccn12; Phe(4-Cl) = N[C@@H](Cc1ccc(Cl)cc1)C(=O)O; Phe(4-F) = N[C@@H](Cc1ccc(F)cc1)C(=O)O; Hyp = O=C(O)[C@@H]1C[C@@H](O)CN1; NMeNle = CCCC[C@H](NC)C(=O)O; Pen = CC(C)(S)[C@H](N)C(=O)O; Pip = O=C(O)[C@@H]1CCCCN1; NMeA = CN[C@@H](C)C(=O)O; Dab = NCC[C@H](N)C(=O)O; Dap = NC[C@H](N)C(=O)O

T1 sequence (Q9NZQ7 with tags, fused parts or gaps): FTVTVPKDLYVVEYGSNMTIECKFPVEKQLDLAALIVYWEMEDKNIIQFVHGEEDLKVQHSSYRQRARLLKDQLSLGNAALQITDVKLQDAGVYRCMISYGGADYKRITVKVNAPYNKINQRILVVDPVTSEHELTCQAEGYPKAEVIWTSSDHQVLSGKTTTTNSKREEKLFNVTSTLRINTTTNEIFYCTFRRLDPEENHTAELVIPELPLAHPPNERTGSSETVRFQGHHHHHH

The IC50 is the point on the concentration scale where inhibition reaches its midpoint. High values mean lower potency, low ones higher potency. `CCCC[C@H]1C(=O)N(C)[C@@H](CCCC)C(=O)N[C@@H](CC(C)C)C(=O)N[C@H](C(N)=O)C(C)(C)SCC(=O)N[C@@H](Cc2ccc(F)cc2)C(=O)N2CCCC[C@H]2C(=O)N[C@@H](CC(=O)O)C(=O)N2CCC[C@H]2C(=O)N[C@@H](Cc2cnc[nH]2)C(=O)N[C@@H](CCC(=O)O)C(=O)N2C[C@H](O)C[C@H]2C(=O)N[C@@H](Cc2c[nH]c3ccccc23)C(=O)N[C@@H](CCN)C(=O)N[C@@H](Cc2cn(CC(=O)NS(C)(=O)=O)c3ccccc23)C(=O)N1C` [Example 1006] ({CH2CO}-[Phe(4-F)][Pip]DPHE[Hyp]W[Dab][Trp(1-CH2CONHSO2Me)][NMeNle][NMeNle]L[Pen]-NH2; thioether N-14) had an IC50 of 1 to 9.9 nM. As to `CCCC[C@H]1C(=O)N(C)[C@@H](CCCC)C(=O)N[C@@H](CC(C)C)C(=O)N[C@H](C(N)=O)C(C)(C)SCC(=O)N[C@@H](Cc2ccc(OC)cc2)C(=O)N2CCCC[C@H]2C(=O)N[C@@H](CC(=O)O)C(=O)N2CCC[C@H]2C(=O)N[C@@H](Cc2cnc[nH]2)C(=O)N[C@@H](CCC(=O)O)C(=O)N2C[C@H](O)C[C@H]2C(=O)N[C@@H](Cc2c[nH]c3ccccc23)C(=O)N[C@@H](CCN)C(=O)N[C@@H](Cc2cn(CC(=O)NS(C)(=O)=O)c3ccccc23)C(=O)N1C` [Example 1007] ({CH2CO}-Y(Me)[Pip]DPHE[Hyp]W[Dab][Trp(1-CH2CONHSO2Me)][NMeNle][NMeNle]L[Pen]-NH2; thioether N-14), the IC50 is 1 to 9.9 nM. For `CCCC[C@H]1C(=O)N(C)[C@@H](CCCC)C(=O)N[C@@H](CC(C)C)C(=O)N[C@H](C(N)=O)C(C)(C)SCC(=O)N[C@@H](Cc2ccc(Cl)cc2)C(=O)N2CCCC[C@H]2C(=O)N[C@@H](CC(=O)O)C(=O)N2CCC[C@H]2C(=O)N[C@@H](Cc2cnc[nH]2)C(=O)N[C@@H](CCC(=O)O)C(=O)N2C[C@H](O)C[C@H]2C(=O)N[C@@H](Cc2c[nH]c3ccccc23)C(=O)N[C@@H](CCN)C(=O)N[C@@H](Cc2cn(CC(=O)NS(C)(=O)=O)c3ccccc23)C(=O)N1C` [Example 1008] ({CH2CO}-[Phe(4-Cl)][Pip]DPHE[Hyp]W[Dab][Trp(1-CH2CONHSO2Me)][NMeNle][NMeNle]L[Pen]-NH2; thioether N-14), the 50% inhibitory concentration (IC50) lay within 1 to 9.9 nM. The molecule `CCCC[C@H]1C(=O)N(C)[C@@H](CCCC)C(=O)N[C@@H](CC(C)C)C(=O)N[C@H](C(=O)NCC(N)=O)CSCC(=O)N[C@@H](Cc2ccc(O)cc2)C(=O)N(C)[C@@H](C)C(=O)N[C@@H](CC(N)=O)C(=O)N2CCC[C@H]2C(=O)N[C@@H](CN)C(=O)N[C@@H](CC(C)C)C(=O)N2C[C@H](O)C[C@H]2C(=O)N[C@@H](Cc2c[nH]c3ccccc23)C(=O)N[C@@H](CCN)C(=O)N[C@@H](Cc2nc(CC(=O)O)n3c2CCCC3)C(=O)N1C` [Example 1009] ({CH2CO}-Y[NMeA]NP[Dap]L[Hyp]W[Dab][X11][NMeNle][NMeNle]LCG-NH2; thioether N-14) registered an IC50 of 10 to 99 nM. In the case of `CCCC[C@H]1C(=O)N(C)[C@@H](CCCC)C(=O)N[C@@H](CC(C)C)C(=O)N[C@H](C(N)=O)C(C)(C)SCC(=O)N[C@@H](Cc2ccc(O)cc2)C(=O)N2CCCC[C@H]2C(=O)N[C@@H](CC(=O)O)C(=O)N2CCC[C@H]2C(=O)N[C@@H](Cc2cnc[nH]2)C(=O)N[C@@H](CCC(=O)O)C(=O)N2C[C@H](O)C[C@H]2C(=O)N[C@@H](Cc2c[nH]c3ccccc23)C(=O)N[C@@H](CCN)C(=O)N[C@@H](Cc2cn(CC(=O)NS(C)(=O)=O)c3ccccc23)C(=O)N1C` [Example 1010] ({CH2CO}-Y[Pip]DPHE[Hyp]W[Dab][Trp(1-CH2CONHSO2Me)][NMeNle][NMeNle]L[Pen]-NH2; thioether N-14) it was 1 to 9.9 nM. Take `CCCC[C@H]1C(=O)N(C)[C@@H](CCCC)C(=O)N[C@@H](CC(C)C)C(=O)N[C@H](C(N)=O)C(C)(C)SCC(=O)N[C@@H](Cc2ccc(O)cc2)C(=O)N2CCCC[C@H]2C(=O)N[C@@H](CC(=O)O)C(=O)N2CCC[C@H]2C(=O)N[C@@H](CN)C(=O)N[C@@H](CCC(=O)O)C(=O)N2C[C@H](O)C[C@H]2C(=O)N[C@@H](Cc2c[nH]c3ccccc23)C(=O)N[C@@H](CCN)C(=O)N[C@@H](Cc2cn(CC(=O)NS(C)(=O)=O)c3ccccc23)C(=O)N1C` [Example 1011] ({CH2CO}-Y[Pip]DP[Dap]E[Hyp]W[Dab][Trp(1-CH2CONHSO2Me)][NMeNle][NMeNle]L[Pen]-NH2; thioether N-14): the IC50 lay within 1 to 9.9 nM. With `CCCC[C@H]1C(=O)N(C)[C@@H](CCCC)C(=O)N[C@@H](CC(C)C)C(=O)N[C@H](C(=O)NCC(N)=O)CSCC(=O)N[C@@H](Cc2ccc(O)cc2)C(=O)N(C)[C@@H](C)C(=O)N[C@@H](CC(N)=O)C(=O)N2CCC[C@H]2C(=O)N[C@@H](CN)C(=O)N[C@@H](CC(C)C)C(=O)N2C[C@H](O)C[C@H]2C(=O)N[C@@H](Cc2c[nH]c3ccccc23)C(=O)N[C@@H](CCN)C(=O)N[C@@H](Cn2nc(CC(=O)O)c3ccccc32)C(=O)N1C` [Example 1012] ({CH2CO}-Y[NMeA]NP[Dap]L[Hyp]W[Dab][X12][NMeNle][NMeNle]LCG-NH2; thioether N-14) the figure was 10 to 99 nM; with `CCCC[C@H]1C(=O)N(C)[C@@H](CCCC)C(=O)N[C@@H](CC(C)C)C(=O)N[C@H](C(=O)NCC(N)=O)CSCC(=O)N[C@@H](Cc2ccc(O)cc2)C(=O)N(C)[C@@H](C)C(=O)N[C@@H](CC(N)=O)C(=O)N2CCC[C@H]2C(=O)N[C@@H](CN)C(=O)N[C@@H](CC(C)C)C(=O)N2C[C@H](O)C[C@H]2C(=O)N[C@@H](Cc2c[nH]c3ccccc23)C(=O)N[C@@H](CCN)C(=O)N[C@@H](Cc2c(C(=O)O)n(CC(=O)O)c3ccccc23)C(=O)N1C` [Example 1013] ({CH2CO}-Y[NMeA]NP[Dap]L[Hyp]W[Dab][X1][NMeNle][NMeNle]LCG-NH2; thioether N-14), 10 to 99 nM. `CCCC[C@H]1C(=O)N(C)[C@@H](CCCC)C(=O)N[C@@H](CC(C)C)C(=O)N[C@H](C(=O)NCC(N)=O)CSCC(=O)N[C@@H](Cc2ccc(O)cc2)C(=O)N(C)[C@@H](C)C(=O)N[C@@H](CC(N)=O)C(=O)N2CCC[C@H]2C(=O)N[C@@H](CN)C(=O)N[C@@H](CC(C)C)C(=O)N2C[C@H](O)C[C@H]2C(=O)N[C@@H](Cc2c[nH]c3ccccc23)C(=O)N[C@@H](CCN)C(=O)N[C@@H](Cn2c(=O)n([C@H](C)C(=O)O)c3ccccc32)C(=O)N1C` [Example 1014] ({CH2CO}-Y[NMeA]NP[Dap]L[Hyp]W[Dab][X14][NMeNle][NMeNle]LCG-NH2; thioether N-14) returned an IC50 of 1 to 9.9 nM.

For `CCCC[C@H]1C(=O)N(C)[C@@H](CCCC)C(=O)N[C@@H](CC(C)C)C(=O)N[C@H](C(=O)NCC(N)=O)CSCC(=O)N[C@@H](Cc2ccc(O)cc2)C(=O)N(C)[C@@H](C)C(=O)N[C@@H](CC(N)=O)C(=O)N2CCC[C@H]2C(=O)N[C@@H](CN)C(=O)N[C@@H](CC(C)C)C(=O)N2C[C@H](O)C[C@H]2C(=O)N[C@@H](Cc2c[nH]c3ccccc23)C(=O)N[C@@H](CCN)C(=O)N[C@@H](Cn2c(=O)n(CC(=O)O)c3ccccc32)C(=O)N1C` [Example 1015] ({CH2CO}-Y[NMeA]NP[Dap]L[Hyp]W[Dab][X18][NMeNle][NMeNle]LCG-NH2; thioether N-14), the IC50 lay within 1 to 9.9 nM.

`CCCC[C@H]1C(=O)N(C)[C@@H](CCCC)C(=O)N[C@@H](CC(C)C)C(=O)N[C@H](C(=O)NCC(N)=O)CSCC(=O)N[C@@H](Cc2ccc(O)cc2)C(=O)N(C)[C@@H](C)C(=O)N[C@@H](CC(N)=O)C(=O)N2CCC[C@H]2C(=O)N[C@@H](CN)C(=O)N[C@@H](CC(C)C)C(=O)N2C[C@H](O)C[C@H]2C(=O)N[C@@H](Cc2c[nH]c3ccccc23)C(=O)N[C@@H](CCN)C(=O)N[C@@H](Cc2nc(CC(=O)O)n3ccccc23)C(=O)N1C` [Example 1016] ({CH2CO}-Y[NMeA]NP[Dap]L[Hyp]W[Dab][X13][NMeNle][NMeNle]LCG-NH2; thioether N-14) had an IC50 of 1 to 9.9 nM.
